Experimental data reported in ChEMBL document CHEMBL4014279, “Synthesis of novel pyrazolo[3,4-b]quinolinyl acetamide analogs, their evaluation for antimicrobial and anticancer activities, validation by molecular modeling and CoMFA analysis” (Eur J Med Chem, 2017).
pIC50: −log10 of the molar value. ≈ marks a conversion by molar mass, not a printed value. Calls of active or inactive are those of the source. No cut-off for these calls is given here.

Assays:
[1] = tested on: Staphylococcus aureus; assay: Antibacterial activity against Staphylococcus aureus MTCC 96 after 24 hrs by well diffusion method; assay type: functional; settings: MTCC 96, 24 h
[2] = tested on: Bacillus subtilis; assay: Antibacterial activity against Bacillus subtilis MTCC 121 after 24 hrs by well diffusion method; assay type: functional; settings: MTCC 121, 24 h
[3] = tested on: Staphylococcus aureus; assay: Antibacterial activity against Staphylococcus aureus MLS16 MTCC 2940 after 24 hrs by well diffusion method; assay type: functional; settings: MLS16 MTCC 2940, 24 h
[4] = tested on: Micrococcus luteus; assay: Antibacterial activity against Micrococcus luteus MTCC 2470 after 24 hrs by well diffusion method; assay type: functional; settings: MTCC 2470, 24 h
[5] = tested on: Raoultella planticola; assay: Antibacterial activity against Klebsiella planticola MTCC 530 after 24 hrs by well diffusion method; assay type: functional; settings: MTCC 530, 24 h
[6] = tested on: Escherichia coli; assay: Antibacterial activity against Escherichia coli MTCC 739 after 24 hrs by well diffusion method; assay type: functional; settings: MTCC 739, 24 h
[7] = tested on: Pseudomonas aeruginosa; assay: Antibacterial activity against Pseudomonas aeruginosa MTCC 2453 after 24 hrs by well diffusion method; assay type: functional; settings: MTCC 2453, 24 h
[8] = tested on: Candida albicans; assay: Antifungal activity against Candida albicans MTCC 183 after 24 hrs by well diffusion method; assay type: functional; settings: MTCC 183, 24 h
[9] = tested on: Candida albicans; assay: Antifungal activity against Candida albicans MTCC 227 after 24 hrs by well diffusion method; assay type: functional; settings: MTCC 227, 24 h
[10] = tested on: Candida albicans; assay: Antifungal activity against Candida albicans MTCC 854 after 24 hrs by well diffusion method; assay type: functional; settings: MTCC 854, 24 h
[11] = tested on: Candida albicans; assay: Antifungal activity against Candida albicans MTCC 1637 after 24 hrs by well diffusion method; assay type: functional; settings: MTCC 1637, 24 h
[12] = tested on: Candida albicans; assay: Antifungal activity against Candida albicans MTCC 3017 after 24 hrs by well diffusion method; assay type: functional; settings: MTCC 3017, 24 h
[13] = tested on: Candida albicans; assay: Antifungal activity against Candida albicans MTCC 3018 after 24 hrs by well diffusion method; assay type: functional; settings: MTCC 3018, 24 h
[14] = tested on: Candida albicans; assay: Antifungal activity against Candida albicans MTCC 3958 after 24 hrs by well diffusion method; assay type: functional; settings: MTCC 3958, 24 h
[15] = tested on: Candida albicans; assay: Antifungal activity against Candida albicans MTCC 4748 after 24 hrs by well diffusion method; assay type: functional; settings: MTCC 4748, 24 h
[16] = tested on: Candida albicans; assay: Antifungal activity against Candida albicans MTCC 7315 after 24 hrs by well diffusion method; assay type: functional; settings: MTCC 7315, 24 h
[17] = tested on: Candida parapsilosis; assay: Antifungal activity against Candida parapsilosis MTCC 1744 after 24 hrs by well diffusion method; assay type: functional; settings: MTCC 1744, 24 h
[18] = tested on: [Candida] aaseri; assay: Antifungal activity against Candida aaseri MTCC 1962 after 24 hrs by well diffusion method; assay type: functional; settings: Yamadazyma aaseri, MTCC 1962, 24 h
[19] = tested on: Nakaseomyces glabratus; assay: Antifungal activity against Candida glabrata MTCC 3019 after 24 hrs by well diffusion method; assay type: functional; settings: MTCC 3019, 24 h
[20] = tested on: Pichia kudriavzevii; assay: Antifungal activity against Candida krusei MTCC 3020 after 24 hrs by well diffusion method; assay type: functional; settings: MTCC 3020, 24 h
[21] = tested on: Pichia sporocuriosa; assay: Antifungal activity against Issatchenkia hanoiensis MTCC 4755 after 24 hrs by well diffusion method; assay type: functional; settings: MTCC 4755, 24 h
[22] = tested on: HeLa; assay: Cytotoxicity against human HeLa cells after 24 hrs by MTT assay; assay type: functional, cell-based
[23] = tested on: HepG2; assay: Cytotoxicity against human HepG2 cells after 24 hrs by MTT assay; assay type: functional, cell-based; settings: HepG2, 24 h
[24] = tested on: A549; assay: Cytotoxicity against human A549 cells after 24 hrs by MTT assay; assay type: functional, cell-based; settings: A549, 24 h
[25] = tested on: COLO 205; assay: Cytotoxicity against human COLO205 cells after 24 hrs by MTT assay; assay type: functional, cell-based; settings: COLO 205, 24 h
[26] = tested on: HeLa; assay: Cytotoxicity against human HeLa cells at >100 uM after 24 hrs by MTT assay; assay type: functional, cell-based
[27] = tested on: HepG2; assay: Cytotoxicity against human HepG2 cells at >100 uM after 24 hrs by MTT assay; assay type: functional, cell-based
[28] = tested on: A549; assay: Cytotoxicity against human A549 cells at >100 uM after 24 hrs by MTT assay; assay type: functional, cell-based
[29] = tested on: COLO 205; assay: Cytotoxicity against human COLO205 cells at >100 uM after 24 hrs by MTT assay; assay type: functional, cell-based

| MIC [1] [µg/mL] | MIC [2] [µg/mL] | MIC [3] [µg/mL] | MIC [4] [µg/mL] | MIC [6] [µg/mL] | MIC [7] [µg/mL] | SMILES | MIC [5] [µg/mL] | pIC50 [22] | pIC50 [23] | pIC50 [24] | pIC50 [25] | Activity [26] | Activity [27] | Activity [28] | Activity [29] | further results |
| --- | --- | --- | --- | --- | --- | --- | --- | --- | --- | --- | --- | --- | --- | --- | --- | --- |
| 31.2 (≈ 65.5 µM) | 62.5 (≈ 131 µM) | 62.5 (≈ 131 µM) | 7.8 (≈ 16.4 µM) | 62.5 (≈ 131 µM) | > 125 | COc1ccc(NC(=O)Cn2nc(C(F)(F)F)c3c(-c4ccccc4)c4ccccc4nc32)cc1 | 7.8 (≈ 16.4 µM) | 4.65 | 4.69 | 4.74 | 4.71 |  |  |  |  | MIC [8]: 62.5 µg/mL (≈ 131 µM); MIC [9]: 31.2 µg/mL (≈ 65.5 µM); MIC [10]: 31.2 µg/mL (≈ 65.5 µM); MIC [11]: 62.5 µg/mL (≈ 131 µM); MIC [12]: 31.2 µg/mL (≈ 65.5 µM); MIC [13]: 62.5 µg/mL (≈ 131 µM); MIC [14]: 31.2 µg/mL (≈ 65.5 µM); MIC [15]: 62.6 µg/mL (≈ 131 µM); MIC [16]: 31.2 µg/mL (≈ 65.5 µM); MIC [17]: 31.2 µg/mL (≈ 65.5 µM); MIC [18]: 62.5 µg/mL (≈ 131 µM); MIC [19]: 31.2 µg/mL (≈ 65.5 µM); MIC [20]: 62.5 µg/mL (≈ 131 µM); MIC [21]: 31.2 µg/mL (≈ 65.5 µM) |
| 7.8 to 125 (≈ 24.2 to 388 µM) | 7.8 to 125 (≈ 24.2 to 388 µM) | 7.8 to 125 (≈ 24.2 to 388 µM) | 7.8 to 125 (≈ 24.2 to 388 µM) | 7.8 to 125 (≈ 24.2 to 388 µM) | 7.8 to 125 (≈ 24.2 to 388 µM) | Cc1nn(CC(=O)N2CCCCC2)c2nc3ccccc3c(C)c12 | 7.8 to 125 (≈ 24.2 to 388 µM) | 4.77 | 4.81 | 4.69 | 4.92 |  |  |  |  |  |
| 7.8 to 125 (≈ 17.3 to 278 µM) | 7.8 to 125 (≈ 17.3 to 278 µM) | 7.8 to 125 (≈ 17.3 to 278 µM) | 7.8 to 125 (≈ 17.3 to 278 µM) | 7.8 to 125 (≈ 17.3 to 278 µM) | 7.8 to 125 (≈ 17.3 to 278 µM) | O=C(Cn1nc(C(F)(F)F)c2c(-c3ccccc3)c3ccccc3nc21)NCc1ccco1 | 7.8 to 125 (≈ 17.3 to 278 µM) | 4.57 | 4.57 | 4.65 | 4.55 |  |  |  |  |  |
| 7.8 to 125 (≈ 19 to 305 µM) | 7.8 to 125 (≈ 19 to 305 µM) | 7.8 to 125 (≈ 19 to 305 µM) | 7.8 to 125 (≈ 19 to 305 µM) | 7.8 to 125 (≈ 19 to 305 µM) | 7.8 to 125 (≈ 19 to 305 µM) | O=C(Cn1nc(C(F)(F)F)c2c(-c3ccccc3)c3ccccc3nc21)NC1CC1 | 7.8 to 125 (≈ 19 to 305 µM) |  |  |  |  | inactive | inactive | inactive | inactive |  |
| 62.5 (≈ 142 µM) | 31.2 (≈ 70.8 µM) | 31.2 (≈ 70.8 µM) | 15.6 (≈ 35.4 µM) | 62.5 (≈ 142 µM) | > 125 | O=C(Cn1nc(C(F)(F)F)c2c(-c3ccccc3)c3ccccc3nc21)N1CCOCC1 | 15.6 (≈ 35.4 µM) |  |  |  |  | inactive | inactive | inactive | inactive | MIC [8]: 31.2 µg/mL (≈ 70.8 µM); MIC [9]: 62.5 µg/mL (≈ 142 µM); MIC [10]: 62.5 µg/mL (≈ 142 µM); MIC [11]: 62.5 µg/mL (≈ 142 µM); MIC [12]: 31.2 µg/mL (≈ 70.8 µM); MIC [13]: 31.2 µg/mL (≈ 70.8 µM); MIC [14]: 31.2 µg/mL (≈ 70.8 µM); MIC [15]: 31.2 µg/mL (≈ 70.8 µM); MIC [16]: 15.6 µg/mL (≈ 35.4 µM); MIC [17]: 31.2 µg/mL (≈ 70.8 µM); MIC [18]: 62.5 µg/mL (≈ 142 µM); MIC [19]: 31.2 µg/mL (≈ 70.8 µM); MIC [20]: 31.2 µg/mL (≈ 70.8 µM); MIC [21]: 15.6 µg/mL (≈ 35.4 µM) |
| 7.8 to 125 (≈ 20.3 to 325 µM) | 7.8 to 125 (≈ 20.3 to 325 µM) | 7.8 to 125 (≈ 20.3 to 325 µM) | 7.8 to 125 (≈ 20.3 to 325 µM) | 7.8 to 125 (≈ 20.3 to 325 µM) | 7.8 to 125 (≈ 20.3 to 325 µM) | CNC(=O)Cn1nc(C(F)(F)F)c2c(-c3ccccc3)c3ccccc3nc21 | 7.8 to 125 (≈ 20.3 to 325 µM) | 4.63 | 4.65 | 4.67 | 4.70 |  |  |  |  |  |
| 7.8 to 125 (≈ 20.6 to 330 µM) | 7.8 to 125 (≈ 20.6 to 330 µM) | 7.8 to 125 (≈ 20.6 to 330 µM) | 7.8 to 125 (≈ 20.6 to 330 µM) | 7.8 to 125 (≈ 20.6 to 330 µM) | 7.8 to 125 (≈ 20.6 to 330 µM) | Cc1c2ccccc2nc2c1c(C(F)(F)F)nn2CC(=O)N1CCOCC1 | 7.8 to 125 (≈ 20.6 to 330 µM) |  |  |  |  | inactive | inactive | inactive | inactive |  |
| 7.8 to 125 (≈ 19.6 to 314 µM) | 7.8 to 125 (≈ 19.6 to 314 µM) | 7.8 to 125 (≈ 19.6 to 314 µM) | 7.8 to 125 (≈ 19.6 to 314 µM) | 7.8 to 125 (≈ 19.6 to 314 µM) | 7.8 to 125 (≈ 19.6 to 314 µM) | CCNC(=O)Cn1nc(C(F)(F)F)c2c(-c3ccccc3)c3ccccc3nc21 | 7.8 to 125 (≈ 19.6 to 314 µM) | 4.58 | 4.65 | 4.53 | 4.72 |  |  |  |  |  |
| 7.8 to 125 (≈ 15.9 to 254 µM) | 7.8 to 125 (≈ 15.9 to 254 µM) | 7.8 to 125 (≈ 15.9 to 254 µM) | 7.8 to 125 (≈ 15.9 to 254 µM) | 7.8 to 125 (≈ 15.9 to 254 µM) | 7.8 to 125 (≈ 15.9 to 254 µM) | O=C(Cn1nc(C(F)(F)F)c2c(-c3ccccc3)c3ccccc3nc21)Nc1ccc([N+](=O)[O-])cc1 | 7.8 to 125 (≈ 15.9 to 254 µM) | 4.82 | 4.91 | 4.97 | 4.84 |  |  |  |  |  |
| 7.8 to 125 (≈ 18.9 to 303 µM) | 7.8 to 125 (≈ 18.9 to 303 µM) | 7.8 to 125 (≈ 18.9 to 303 µM) | 7.8 to 125 (≈ 18.9 to 303 µM) | 7.8 to 125 (≈ 18.9 to 303 µM) | 7.8 to 125 (≈ 18.9 to 303 µM) | CCCNC(=O)Cn1nc(C(F)(F)F)c2c(-c3ccccc3)c3ccccc3nc21 | 7.8 to 125 (≈ 18.9 to 303 µM) | 4.63 | 4.63 | 4.59 | 4.66 |  |  |  |  |  |
